# Source: article PMC8657982, “Overlap and Specificity in the Substrate Spectra of Human Monoamine Transporters and Organic Cation Transporters 1, 2, and 3” (International Journal of Molecular Sciences, 2021)
# T1: OCT1 (Homo sapiens, UniProt O15245)
# T1 sequence (O15245 1-554): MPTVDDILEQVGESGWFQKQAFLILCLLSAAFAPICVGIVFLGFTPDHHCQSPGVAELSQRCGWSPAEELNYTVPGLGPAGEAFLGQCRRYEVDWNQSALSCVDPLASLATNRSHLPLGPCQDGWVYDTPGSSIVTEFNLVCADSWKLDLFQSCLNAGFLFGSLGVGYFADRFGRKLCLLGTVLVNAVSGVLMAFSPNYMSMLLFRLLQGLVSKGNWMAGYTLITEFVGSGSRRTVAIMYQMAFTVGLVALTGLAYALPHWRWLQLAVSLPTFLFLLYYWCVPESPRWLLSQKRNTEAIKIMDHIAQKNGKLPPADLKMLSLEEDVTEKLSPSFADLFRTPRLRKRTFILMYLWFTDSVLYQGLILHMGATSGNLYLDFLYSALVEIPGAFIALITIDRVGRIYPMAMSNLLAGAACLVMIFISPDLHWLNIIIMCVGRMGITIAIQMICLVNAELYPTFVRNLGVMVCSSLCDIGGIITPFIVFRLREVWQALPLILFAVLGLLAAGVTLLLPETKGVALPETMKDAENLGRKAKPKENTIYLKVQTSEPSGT
# T2: OCT2 (Homo sapiens, UniProt O15244)
# T2 sequence (O15244 1-555): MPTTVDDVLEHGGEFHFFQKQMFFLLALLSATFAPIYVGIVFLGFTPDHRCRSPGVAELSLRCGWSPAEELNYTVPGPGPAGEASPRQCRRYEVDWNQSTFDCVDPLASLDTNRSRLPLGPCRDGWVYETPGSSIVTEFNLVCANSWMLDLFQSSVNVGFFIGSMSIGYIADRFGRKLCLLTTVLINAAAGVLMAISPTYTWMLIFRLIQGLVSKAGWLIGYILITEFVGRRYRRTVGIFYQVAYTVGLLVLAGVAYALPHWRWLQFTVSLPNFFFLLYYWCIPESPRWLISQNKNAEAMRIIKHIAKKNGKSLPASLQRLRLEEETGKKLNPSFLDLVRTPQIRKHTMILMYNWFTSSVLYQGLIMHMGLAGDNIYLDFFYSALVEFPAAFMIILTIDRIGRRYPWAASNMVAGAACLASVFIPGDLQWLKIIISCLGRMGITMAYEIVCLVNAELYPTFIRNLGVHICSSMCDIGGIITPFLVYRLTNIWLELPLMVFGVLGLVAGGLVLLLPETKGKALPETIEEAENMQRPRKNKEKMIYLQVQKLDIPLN
# T3: OCT3 (Homo sapiens, UniProt O75751)
# T3 sequence (O75751 1-556): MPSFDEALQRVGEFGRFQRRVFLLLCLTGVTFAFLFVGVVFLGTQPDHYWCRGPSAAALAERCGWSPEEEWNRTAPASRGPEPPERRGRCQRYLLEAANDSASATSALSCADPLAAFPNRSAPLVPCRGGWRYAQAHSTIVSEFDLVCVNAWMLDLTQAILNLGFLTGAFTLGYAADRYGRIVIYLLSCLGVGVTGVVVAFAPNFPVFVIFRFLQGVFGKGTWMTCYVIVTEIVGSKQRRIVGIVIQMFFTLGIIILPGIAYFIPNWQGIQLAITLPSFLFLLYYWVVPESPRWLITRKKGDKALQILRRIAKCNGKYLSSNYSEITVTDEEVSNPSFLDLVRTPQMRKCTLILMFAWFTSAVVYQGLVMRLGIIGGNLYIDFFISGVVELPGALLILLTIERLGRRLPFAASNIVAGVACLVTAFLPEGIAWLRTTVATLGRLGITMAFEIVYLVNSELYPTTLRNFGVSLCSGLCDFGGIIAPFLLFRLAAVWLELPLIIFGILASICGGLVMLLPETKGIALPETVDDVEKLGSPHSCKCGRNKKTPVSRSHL
# B1: DAT (Homo sapiens) (protein)
# chain: MSKSKCSVGLMSSVVAPAKEPNAVGPKEVELILVKEQNGVQLTSSTLTNPRQSPVEAQDRETWGKKIDFLLSVIGFAVDLANVWRFPYLCYKNGGGAFLVPYLLFMVIAGMPLFYMELALGQFNREGAAGVWKICPILKGVGFTVILISLYVGFFYNVIIAWALHYLFSSFTTELPWIHCNNSWNSPNCSDAHPGDSSGDSSGLNDTFGTTPAAEYFERGVLHLHQSHGIDDLGPPRWQLTACLVLVIVLLYFSLWKGVKTSGKVVWITATMPYVVLTALLLRGVTLPGAIDGIRAYLSVDFYRLCEASVWIDAATQVCFSLGVGFGVLIAFSSYNKFTNNCYRDAIVTTSINSLTSFSSGFVVFSFLGYMAQKHSVPIGDVAKDGPGLIFIIYPEAIATLPLSSAWAVVFFIMLLTLGIDSAMGGMESVITGLIDEFQLLHRHRELFTLFIVLATFLLSLFCVTNGGIYVFTLLDHFAAGTSILFGVLIEAIGVAWFYGVGQFSDDIQQMTGQRPSLYWRLCWKLVSPCFLLFVVVVSIVTFRPPHYGAYIFPDWANALGWVIATSSMAMVPIYAAYKFCSLPGSFREKLAYAIAPEKDRELVDRGEVRQFTLRHWLKV
# Tests used:
# OCT1 = biological target: T1, OCT1; test: Uptake into HEK293 cells overexpressing OCT1 (uptake ratio and concentration-dependent uptake); details: intrinsic clearance, quotient of vmax and Km
# OCT2 = biological target: T2, OCT2; test: Uptake into HEK293 cells overexpressing OCT2 (uptake ratio and concentration-dependent uptake); details: for Vmax ± SEM: concentration-dependent net uptake, Michaelis–Menten; for Clint ± SEM: intrinsic clearance, quotient of vmax and Km
# OCT3 = biological target: T3, OCT3; test: Uptake into HEK293 cells overexpressing OCT3 (uptake ratio and concentration-dependent uptake); details: intrinsic clearance, quotient of vmax and Km
# SERT = SERT (Homo sapiens, UniProt P31645); test: Uptake into HEK293 cells overexpressing SERT (uptake ratio and concentration-dependent uptake); details: for Clint ± SEM: SERT, intrinsic clearance, quotient of vmax and Km;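 for Uptake Ratio by Transporter SERT: ratio of uptake in SERT cells over empty-vector control cells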;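 for all read-outs here: incubation at 37 °C, intracellular compound quantified by HPLC-MS/MS after cell lysis, uptake normalized to total protein measured by bicinchoninic acid assay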
# SERT, sequence (P31645 whole entry): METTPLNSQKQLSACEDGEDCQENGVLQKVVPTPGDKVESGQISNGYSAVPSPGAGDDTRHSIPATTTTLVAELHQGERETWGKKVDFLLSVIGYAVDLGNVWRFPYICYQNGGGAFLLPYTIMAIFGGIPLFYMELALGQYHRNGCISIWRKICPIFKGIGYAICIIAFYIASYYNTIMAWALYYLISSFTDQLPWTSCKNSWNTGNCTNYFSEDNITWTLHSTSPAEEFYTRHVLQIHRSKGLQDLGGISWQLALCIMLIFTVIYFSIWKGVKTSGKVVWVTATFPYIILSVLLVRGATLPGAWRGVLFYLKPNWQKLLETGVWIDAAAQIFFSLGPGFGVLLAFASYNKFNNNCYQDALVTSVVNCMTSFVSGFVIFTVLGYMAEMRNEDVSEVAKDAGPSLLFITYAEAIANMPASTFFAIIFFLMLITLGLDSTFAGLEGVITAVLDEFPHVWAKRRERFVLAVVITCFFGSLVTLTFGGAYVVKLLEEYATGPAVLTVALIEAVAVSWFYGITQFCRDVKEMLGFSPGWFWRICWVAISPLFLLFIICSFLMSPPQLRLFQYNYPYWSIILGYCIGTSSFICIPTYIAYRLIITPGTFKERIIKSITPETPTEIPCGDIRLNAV
# NET [1] = system: NET; set-up: method as in PMID 31265842; details: cited from earlier work
# DAT [2] = system: DAT; set-up: method as in PMID 31265842; details: cited from earlier work
# NET [3] = biological target: NET (Homo sapiens, UniProt P23975); test: Uptake into HEK293 cells overexpressing NET (uptake ratio and concentration-dependent uptake); details: intrinsic clearance, quotient of vmax and Km
# NET (Homo sapiens, UniProt P23975), sequence (P23975 whole entry): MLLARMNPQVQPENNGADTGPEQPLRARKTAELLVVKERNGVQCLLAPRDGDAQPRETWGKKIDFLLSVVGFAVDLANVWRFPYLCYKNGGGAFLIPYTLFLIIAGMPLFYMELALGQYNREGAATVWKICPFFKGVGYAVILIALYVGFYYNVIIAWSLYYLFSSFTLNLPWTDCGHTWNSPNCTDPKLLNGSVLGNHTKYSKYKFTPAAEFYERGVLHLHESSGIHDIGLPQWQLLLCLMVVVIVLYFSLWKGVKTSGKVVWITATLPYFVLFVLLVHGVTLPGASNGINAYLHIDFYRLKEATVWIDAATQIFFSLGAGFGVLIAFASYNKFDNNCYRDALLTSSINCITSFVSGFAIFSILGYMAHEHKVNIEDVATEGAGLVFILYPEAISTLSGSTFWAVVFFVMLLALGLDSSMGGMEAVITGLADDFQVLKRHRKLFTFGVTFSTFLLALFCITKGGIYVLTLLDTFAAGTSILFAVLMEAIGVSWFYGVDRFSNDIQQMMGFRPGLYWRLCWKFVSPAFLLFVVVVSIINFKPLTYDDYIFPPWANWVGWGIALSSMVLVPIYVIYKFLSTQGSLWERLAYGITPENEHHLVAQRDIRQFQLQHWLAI
# DAT [4] = biological target: DAT (Homo sapiens, UniProt Q01959); test: Uptake into HEK293 cells overexpressing DAT (uptake ratio and concentration-dependent uptake); details: for Clint ± SEM: intrinsic clearance, quotient of vmax and Km
# CNCCc1c[nH]c2ccc(O)cc12 = test: cells, lysate or membranes; details: pH 7.4;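 for Uptake Ratio by Transporter SERT: incubation at 37 °C, intracellular compound quantified by HPLC-MS/MS after cell lysis, uptake normalized to total protein measured by bicinchoninic acid assay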;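 for Uptake Ratio by Transporter SERT: ratio of uptake in SERT cells over empty-vector control cells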
# [5] = system: CN[C@@H]1CCc2[nH]c3ccc(C(N)=O)cc3c2C1; test: cells, lysate or membranes; details: other: SERT; concentration-dependent net uptake, Michaelis–Menten; pH 7.4;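 for Uptake Ratio by Transporter SERT: incubation at 37 °C, intracellular compound quantified by HPLC-MS/MS after cell lysis, uptake normalized to total protein measured by bicinchoninic acid assay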;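 for Uptake Ratio by Transporter SERT: ratio of uptake in SERT cells over empty-vector control cells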
# N=C(N)NCc1cccc(I)c1 = test: cells, lysate or membranes; details: other: SERT; concentration-dependent net uptake, Michaelis–Menten; pH 7.4;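 for Uptake Ratio by Transporter SERT: incubation at 37 °C, intracellular compound quantified by HPLC-MS/MS after cell lysis, uptake normalized to total protein measured by bicinchoninic acid assay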;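 for Uptake Ratio by Transporter SERT: ratio of uptake in SERT cells over empty-vector control cells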
# NCCc1c[nH]c2ccccc12 = test: cells, lysate or membranes; details: other: SERT; concentration-dependent net uptake, Michaelis–Menten; pH 7.4
# [6] = substrate: CNCCc1c[nH]c2ccc(O)cc12; test: cells, lysate or membranes; details: other: DAT; concentration-dependent net uptake, Michaelis–Menten; pH 7.4
# [7] = substrate: N=C(N)NCc1cccc(I)c1; test: cells, lysate or membranes; details: other: DAT; concentration-dependent net uptake, Michaelis–Menten; pH 7.4
# [8] = substrate: NCCc1c[nH]c2ccc(O)cc12; test: cells, lysate or membranes; details: other: DAT; concentration-dependent net uptake, Michaelis–Menten; pH 7.4
# [9] = substrate: NCCc1ccc(O)c(O)c1; test: cells, lysate or membranes; details: other: DAT; concentration-dependent net uptake, Michaelis–Menten; pH 7.4
# [10] = substrate: NCCc1ccccc1; test: cells, lysate or membranes; details: other: DAT; concentration-dependent net uptake, Michaelis–Menten; pH 7.4
molecule,measurement,setting,value
CNCCc1c[nH]c2ccc(O)cc12 [N-Methyl serotonin],Clint ± SEM,OCT1,80.52 mL × g Protein^−1 × min^−1
same,Vmax ± SEM,OCT2,"11,918 pmol × mg Protein^−1 × min^−1"
same,Clint ± SEM,OCT2,46.93 mL × g Protein^−1 × min^−1
same,Clint ± SEM,OCT3,9.68 mL × g Protein^−1 × min^−1
same,Clint ± SEM,SERT,337.7 mL × g Protein^−1 × min^−1
NCCc1ccccc1 [Phenylethylamine],NET inhibition IC50,NET [1],low micromolar range
same,DAT inhibition IC50,DAT [2],low micromolar range
same,Clint ± SEM,NET [3],3.4 mL × g Protein^−1 × min^−1
same,Clint ± SEM,DAT [4],2.1 mL × g Protein^−1 × min^−1
same,Uptake Ratio by Transporter SERT,SERT,1.71
NCCc1c[nH]c2ccc(O)cc12 [Serotonin],Clint ± SEM,NET [3],18.83 mL × g Protein^−1 × min^−1
same,Clint ± SEM,DAT [4],77.39 mL × g Protein^−1 × min^−1
same,Clint ± SEM,OCT1,21.91 mL × g Protein^−1 × min^−1
same,Vmax ± SEM,OCT2,"31,565 pmol × mg Protein^−1 × min^−1"
same,Clint ± SEM,OCT2,46.04 mL × g Protein^−1 × min^−1
same,Clint ± SEM,OCT3,1.17 mL × g Protein^−1 × min^−1
same,Clint ± SEM,SERT,256.9 mL × g Protein^−1 × min^−1
"NC(N)=NCc1cccc(I)c1 [mIBG, meta-iodobenzylguanidine, reference compound]",Clint ± SEM,NET [3],284 mL × g Protein^−1 × min^−1
same,Clint ± SEM,NET [3]; listed as meta-iodobenzylguanidine,284.6 ± 84.2 mL × g Protein^−1 × min^−1
same,Vmax ± SEM,"DAT [4]; concentration-dependent net uptake, Michaelis–Menten",2800 pmol × mg Protein^−1 × min^−1
same,Clint ± SEM,DAT [4],229 ± 33.8 mL × g Protein^−1 × min^−1
same,Clint ± SEM,OCT1,138 ± 38.5 mL × g Protein^−1 × min^−1
same,Clint ± SEM,OCT2,152 ± 34.1 mL × g Protein^−1 × min^−1
same,Clint ± SEM,OCT3,161 ± 35.7 mL × g Protein^−1 × min^−1
same,Clint ± SEM,SERT,38.2 ± 25.9 mL × g Protein^−1 × min^−1
SERT (Homo sapiens),Km,CNCCc1c[nH]c2ccc(O)cc12,4.065 ± 1.829 µM
same,Vmax,CNCCc1c[nH]c2ccc(O)cc12,1373.0 pmol × mg Protein^−1 × min^−1
same,Km,[5],26.51 µM
same,Vmax,[5],1020 pmol × mg Protein^−1 × min^−1
same,Km,N=C(N)NCc1cccc(I)c1,11.2 ± 6.2 µM
same,Vmax,N=C(N)NCc1cccc(I)c1,0.000429 µmol/min/mg
same,Vmax/Km,N=C(N)NCc1cccc(I)c1,38.2 µL/min/mg
same,Km,NCCc1c[nH]c2ccccc12,29.0 µM
same,Vmax,NCCc1c[nH]c2ccccc12,634.6 pmol × mg Protein^−1 × min^−1
B1,Km,[6],43.82 ± 14.39 µM
same,Vmax,[6],3560 pmol × mg Protein^−1 × min^−1
same,Km,[7],12.2 ± 1.46 µM
same,Vmax,[7],0.0028 µmol/min/mg
same,Vmax/Km,[7],229 µL/min/mg
same,Km,[8],50.50 µM
same,Vmax,[8],3908 pmol × mg Protein^−1 × min^−1
same,Km,[9],25.1 µM
same,Vmax,[9],1977 pmol × mg Protein^−1 × min^−1
same,Km,[10],156 µM
same,Vmax,[10],325 pmol × mg Protein^−1 × min^−1
